Laboratory results published in publication PMC5494507, “γ‐Secretase inhibitors in cancer clinical trials are pharmacologically and functionally distinct” (EMBO Molecular Medicine, 2017).
Read-outs that look alike come from different tables or passages of the source.

Experiments:
cNOTCH4sub = test: Cell-based γ-secretase cleavage assay, cNOTCH4sub in H4 cells (Aβ-like peptide ELISA); parameters: species or system human; settings: Aβ-like peptide in media, GSI overnight
Method: (§1) Using these cell‐based γ‐secretase cleavage assays, we systematically investigated the substrate inhibition profile of BMS‐906024, MK‐0752, PF‐308414, RO4929097, Semagacestat, and DAPT. We treated H4 cells stably expressing cNOTCH1‐4sub with 4 pM to 10 μM of GSIs (Fig 5A and Table 2) and measured the Aβ‐like peptide secreted into the media.
(§2) For the cell‐based assay, all substrates contain a human NOTCH4 signal peptide sequence ([…]), amyloid β peptide (Aβ1–25/K16A) epitope tag followed by the juxtamembrane region (JMD) of the given substrate and a FLAG tag ([…]) at the COOH‐terminal. K16A mutant was created to decrease potential α‐secretase cleavage. The cDNAs were generated by gene synthesis conducted by Genscript. A schematic representation of the substrates is provided in Fig 4A, and sequences of the cDNAs and the proteins are provided in Appendix Fig S6. For clarity, these substrates are referred to as cell‐based assay substrates (e.g., NOTCH1 is cNOTCH1sub). Substrate cDNAs were cloned into pCDNA3.1 (Invitrogen, Carlsbad, CA, USA) for expression in H4 cells (ATCC, Manassas, VA).
(§3) H4 cells were cultured in Opti‐mem media (Thermo‐Fisher) supplemented with Hyclone 6% fetal bovine serum (GE, Logan, Utah, USA) and 1% penicillin/streptomycin (Life Technologies, Grand Island, NY, USA). pCDNA3.1 plasmids containing the substrate cDNAs were transfected into H4 cells using FuGENE HD reagent (Madison, WI, USA). Stable cell lines were established using G418 selection. […] Cells and conditioned media were used for WB, IP, and ELISA.
(§4) Sandwich ELISAs used for Aβ detection were performed as previously described (Murphy et al, 1999; Ran et al, 2014). Briefly, Aβ and Aβ‐like peptides in conditioned media were captured with Ab5 antibody and detected with horseradish peroxidase labeled mAb 4G8 (Biolegend). Synthetic Aβ1‐40 was used as standard. All ELISAs were developed with TMB substrate (KPL, Gaithersburg, Maryland, USA). Bis‐Tris precast gels (Biorad, Hercules, CA, USA) were used for all SDS–PAGE. Monoclonal anti‐FLAG M2 antibody (Sigma) and Aβ1‐16 antibody 6E10 (Covance) were used for Western blotting at 1:1,000 dilution. Anti‐CD74 In‐1 antibody (BD Bioscience, San Jose, CA, USA) was used for A20 cell lysate Western blotting at dilution of 1:1,000. MDA‐MB‐231 cell extracts were prepared by lysing cells in RIPA buffer containing protease and phosphatase inhibitors. The lysates were kept on ice for 30 min and vortexed every 10 min, and then centrifuged at 4°C for 10 min at 1,000 g. The supernatants were collected, and protein concentrations were determined by Bradford Assay. Pan‐NOTCH1 antibody (C‐20) (Santa Cruz Biotechnology) and cleaved NOTCH1 (Val1744) antibody ([…]) were used at 1:500 and 1:100 dilution in the test of endogenous NOTCH1 inhibition with β‐actin expression used as loading control. β‐actin antibody was used at 1:1,000 dilution (Sigma). Band intensities normalized for actin using densitometry analysis with ImageJ Software (NIH, USA).

cAPPC100sub = test: Cell-based γ-secretase cleavage assay, cAPPC100sub stably overexpressing cells (Aβ ELISA); settings: for low-dose potentiation of cleavage, cAPPC100sub: cAPPC100sub overexpressing cells
Source text: (§5) We next tested all GSIs on cAPPC100sub and full‐length APP stably overexpressing cells. […] The low‐dose potentiation of γ‐secretase cleavage was further mechanistically probed using in vitro assays with recombinant substrates and IP‐MS.
as §2, §3, §4

full‐length APP = test: Cell-based γ-secretase cleavage assay, full-length APP stably overexpressing cells (Aβ ELISA); settings: for IC50: full-length APP stably overexpressing cells, Aβ ELISA
Method: as §5, §3, §4

cNOTCH1‐4sub = test: Average of cell-based IC50s on cNOTCH1-4sub in H4 cells; parameters: species or system human; settings: read-out: Average IC50s of each GSI on cNOTCH1‐4sub
Method: as §1, §2, §3, §4

SPPL2a = biological target: T1, SPPL2a (Mus musculus, UniProt Q9JJF9); test: Endogenous CD74 P8 turnover in A20 cells (Western blot, In-1 antibody), biomarker for SPPL2a cleavage; assay type: cell-based; settings: 16 h
T1 construct: To verify the finding in a non‐overexpressing cell line; endogenous in cells; host or cells: A20 (ATCC TIB-208)
T1 sequence (Q9JJF9 26-523): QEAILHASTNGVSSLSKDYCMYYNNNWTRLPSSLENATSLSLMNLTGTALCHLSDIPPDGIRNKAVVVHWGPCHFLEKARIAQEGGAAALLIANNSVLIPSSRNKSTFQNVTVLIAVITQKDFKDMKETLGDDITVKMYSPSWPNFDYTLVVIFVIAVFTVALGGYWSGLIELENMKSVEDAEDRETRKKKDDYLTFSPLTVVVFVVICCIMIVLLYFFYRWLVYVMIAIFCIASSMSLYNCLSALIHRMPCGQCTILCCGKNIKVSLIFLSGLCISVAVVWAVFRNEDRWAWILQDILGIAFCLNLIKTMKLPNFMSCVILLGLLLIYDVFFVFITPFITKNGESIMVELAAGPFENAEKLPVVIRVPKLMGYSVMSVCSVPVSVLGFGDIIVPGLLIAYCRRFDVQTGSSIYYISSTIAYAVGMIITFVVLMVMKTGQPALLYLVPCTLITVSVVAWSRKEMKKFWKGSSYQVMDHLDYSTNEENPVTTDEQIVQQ
Method: To verify the finding in a non‐overexpressing cell line, we applied the inhibitors to the mouse B lymphocyte cell line A20 (ATCC TIB‐208).
SPPL2a, SPPL2b, SPP, and chimeric substrate FBA were generated as previously described (Ran et al, 2015). A20 cells (TIB‐208; ATCC, Manassas, VA, USA) were cultured in RPMI‐1640 medium (ATCC) supplied with 10% fetal bovine serum, 1% penicillin/streptomycin, and 0.05 mM 2‐mercaptoethanol (Life Technologies). Various concentrations of GSIs and (ZLL)2‐ketone as indicated in figures were applied to transfected HEK 293t cells at 70–90% confluence or A20 cells at a density of 5 × 10^5 cells/ml with fresh media in 48‐well format for 16 h. Cells and conditioned media were used for WB, IP, and ELISA.
as §4

NOTCH = system: NOTCH; parameters: method as in ref Appendix Table S1 (Gavai et al, 2015; Cook et al, 2010; Krop et al, 2012; Wei et al, 2010; Luistro et al, 2009; Mitani et al, 2012); settings: ref Appendix Table S1 (Gavai et al, 2015; Cook et al, 2010; Krop et al, 2012; Wei et al, 2010; Luistro et al, 2009; Mitani et al, 2012); read-out: Reported IC50s NOTCH; cited from earlier work
rAPPC100sub = test: Cell-free γ-secretase assay, rAPPC100sub (IP-MS), low-dose potentiation; assay type: biochemical; settings: in vitro assay, recombinant substrate
Source text: as §5

[1] = stably overexpressing cells, Aβ ELISA, read-out: IC50 cC100sub
[2] = value in parentheses, read-out: IC50 cC100sub, from curves excluding the Aβ level > 120%

| stabilization of CD74 8 kDa NTF P8 (SPPL2a; 1,000 nM) | SMILES | IC50 (cNOTCH4sub) | IC50 (cAPPC100sub; [1]) | IC50 (cAPPC100sub; [2]) | IC50 (full‐length APP) | IC50 (cNOTCH1‐4sub) | stabilization of CD74 8 kDa NTF P8 (SPPL2a; 40 nM) | IC50 (NOTCH) | low-dose potentiation of cleavage, cAPPC100sub (cAPPC100sub) | low-dose potentiation of cleavage, APP (full‐length APP; full-length APP overexpressing cells) | stabilization of CD74 8 kDa NTF P8 (SPPL2a; at the tested dose) | increase of Aβ production from the cAPPC100sub (cAPPC100sub; 1–4 pM BMS‐906024) | concentration at which cleavage from rAPPC100sub was potentiated (rAPPC100sub) |
| --- | --- | --- | --- | --- | --- | --- | --- | --- | --- | --- | --- | --- | --- |
| – | CCC[C@H](N[C@H]1CCc2cc(F)cc(F)c2C1)C(=O)Nc1cn(C(C)(C)CNCC(C)(C)C)cn1 [PF‐3084014] | 0.81 nM | 2.47 nM | 1.34 nM | 0.07 nM | 0.66 nM | slightly stabilized | 13.3 nM | – | – | – | – | – |
| – | CC(C)(C(=O)NCC(F)(F)C(F)(F)F)C(=O)N[C@@H]1C(=O)Nc2ccccc2-c2ccccc21 [RO4929097] | 3.4 nM | 26.6 nM | 24 nM | 1.41 nM | 6.48 nM | greatly stabilized | 5 nM | low‐dose potentiation of cleavage was observed | low‐dose potentiation of cleavage was observed | – | – | – |
| – | O=C(O)CC[C@H]1CC[C@@](c2cc(F)ccc2F)(S(=O)(=O)c2ccc(Cl)cc2)CC1 [MK‐0752] | 191 nM | 336 nM | 154 nM | 9.03 nM | – | – | 55 nM | low‐dose potentiation of cleavage was observed | – | did not show stabilization activity | – | – |
| – | CN1C(=O)[C@@H](NC(=O)[C@H](CCC(F)(F)F)[C@H](CCC(F)(F)F)C(N)=O)N=C(c2ccccc2)c2ccccc21 [BMS‐906024] | 0.71 nM | 1.46 nM | – | 0.05 nM | 0.57 nM | greatly stabilized | 0.7 to 3.4 nM | – | – | – | ~ 1.5 fold | 0.03 nM |
| weak stabilization | CC(C)[C@H](O)C(=O)N[C@@H](C)C(=O)N[C@@H]1C(=O)N(C)CCc2ccccc21 [Semagacestat] | 46 nM | 175 nM | 105 nM | 24.5 nM | 121 nM | – | 14.1 nM | low‐dose potentiation of cleavage was observed | – | – | – | 0.16 nM |
